Here are results for 11 molecules from ChEMBL document CHEMBL3425473, “Synthesis and biological evaluation of boswellic acid-NSAID hybrid molecules as anti-inflammatory and anti-arthritic agents” (Eur J Med Chem, 2015).

Active and inactive are the calls of the source. No cut-off for these calls is given here.

Data set [1] concerns Rattus norvegicus. Kind of data set: Reduction in neutrophil infiltration in Complete Freund's adjuvant-induced arthritic albino Wistar rat ankle joint at 10 mg/kg administered via gavage daily started from day 7 and continued till day 21 after CFA injection by hematoxylin-eosin staining based microscopic analysis. In kind it is functional, organism-based. Further details: dose 10 mg/kg.

The subject of data set [2] is Rattus norvegicus. The data set can be described thus: In vivo inhibition of COX-2 activity in Complete Freund's adjuvant-induced arthritic albino Wistar rat serum assessed as decrease in peroxidase activity measured as TMPD oxidation rate at 10 mg/kg administered via gavage daily started from day 7 and continued till day 21 after CFA injection by colorimetric analysis. Further details: dose 10 mg/kg. In kind it is functional, organism-based.

The nature of data set [3]: Cytotoxicity against human SW982 cells after 24 hrs by MTT assay. It is filed as cell-based. As to conditions: read-out: LD50. (In general: Tetrazolium assays rely on reduction of a dye to a coloured formazan, in cell work by metabolically active cells.)
For the next data set, the system named is SW982. Kind of data set: Inhibition of IL-1 beta-induced LOX activity in human SW982 cells assessed as enzyme activity at LD50 treated for 24 hrs prior to incubation with IL-1 beta for 6 hrs (reference value: 100.0%). In kind it is cell-based. Further details: scale not given: the % may be the effect or the level left.
The target of data set [4] is T1, Prostaglandin G/H synthase 2 (Homo sapiens) (UniProt P35354).
T1 sequence (whole entry): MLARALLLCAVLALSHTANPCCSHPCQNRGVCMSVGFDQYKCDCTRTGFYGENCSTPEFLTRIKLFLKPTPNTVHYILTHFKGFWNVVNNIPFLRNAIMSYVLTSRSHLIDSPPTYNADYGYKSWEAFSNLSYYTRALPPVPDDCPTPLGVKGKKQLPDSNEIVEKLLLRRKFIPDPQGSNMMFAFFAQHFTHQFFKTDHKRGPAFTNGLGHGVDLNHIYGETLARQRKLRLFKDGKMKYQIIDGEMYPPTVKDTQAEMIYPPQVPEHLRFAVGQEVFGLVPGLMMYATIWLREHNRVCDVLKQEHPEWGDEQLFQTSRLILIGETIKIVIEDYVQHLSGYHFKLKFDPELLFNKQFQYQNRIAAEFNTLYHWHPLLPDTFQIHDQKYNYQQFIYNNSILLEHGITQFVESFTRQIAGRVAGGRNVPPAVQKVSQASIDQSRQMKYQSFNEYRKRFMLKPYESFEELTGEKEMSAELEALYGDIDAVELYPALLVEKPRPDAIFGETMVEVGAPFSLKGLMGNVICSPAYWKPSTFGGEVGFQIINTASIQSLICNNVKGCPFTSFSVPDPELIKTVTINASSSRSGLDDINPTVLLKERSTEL
Kind of data set: Inhibition of IL-1 beta-induced COX-2 activity in human SW982 cells assessed as enzyme activity at LD50 treated for 24 hrs prior to incubation with IL-1 beta for 6 hrs (reference value: 100.0%). Further details: scale not given: the % may be the effect or the level left. It is filed as cell-based.

`COC(=O)[C@]1(C)[C@@H]2CC[C@]3(C)[C@H](C(=O)C=C4[C@@H]5[C@@H](C)[C@H](C)CC[C@]5(C)CC[C@]43C)[C@@]2(C)CC[C@H]1OC(=O)C(C)c1ccc(CC(C)C)cc1` (mixture of isomers): the inhibition result with Rattus norvegicus [1] and in the data set on Rattus norvegicus [2] was “Active” in each case. For the same molecule, the CC50 at 24 h in data set [3] was 40.6 µM. In addition, the Activity was 60.2% with SW982 and 27.7% in data set [4].
Turning to `COC(=O)[C@]1(C)[C@@H]2CC[C@]3(C)[C@H](CC=C4[C@@H]5[C@@H](C)[C@H](C)CC[C@]5(C)CC[C@]43C)[C@@]2(C)CC[C@H]1OC(=O)C(C)c1ccc2cc(OC)ccc2c1` (mixture of isomers), in the data set on Rattus norvegicus [2], the inhibition entry was “Active”.
Take `C[C@H]1[C@H](C)CC[C@]2(C)CC[C@]3(C)C(=CC[C@@H]4[C@@]5(C)CC[C@@H](O)[C@](C)(C(=O)O)[C@@H]5CC[C@]43C)[C@H]12` [BOSWELLIC ACID]: the CC50 at 24 h in data set [3] was found to be 70.2 µM. For the same molecule, the results for the Activity (with SW982; in data set [4]) were 44% and 50.8%, respectively.
Regarding `COC(=O)[C@]1(C)[C@@H]2CC[C@]3(C)[C@H](C(=O)C=C4[C@@H]5[C@@H](C)[C@H](C)CC[C@]5(C)CC[C@]43C)[C@@]2(C)CC[C@H]1OC(=O)C(C)c1ccc2cc(OC)ccc2c1` (mixture of isomers), in the data set with Rattus norvegicus [2], the inhibition result is “Active”.
`COC(=O)[C@]1(C)[C@@H]2CC[C@]3(C)[C@H](CC=C4[C@@H]5[C@@H](C)[C@H](C)CC[C@]5(C)CC[C@]43C)[C@@]2(C)CC[C@H]1OC(=O)Cc1c(C)n(C(=O)c2ccc(Cl)cc2)c2ccc(OC)cc12`: the inhibition entry in the data set on Rattus norvegicus [2] is “Active”.
In the case of `COC(=O)[C@]1(C)[C@@H]2CC[C@]3(C)[C@H](CC=C4[C@@H]5[C@@H](C)[C@H](C)CC[C@]5(C)CC[C@]43C)[C@@]2(C)CC[C@H]1OC(=O)C(C)c1ccc(CC(C)C)cc1` (mixture of isomers), the inhibition entry with Rattus norvegicus [1] and in the data set on Rattus norvegicus [2] was “Active” throughout. Moreover, the CC50 at 24 h in data set [3] was found to be 62.6 µM. Besides, the results for the Activity (with SW982; in data set [4]) were 65.8% and 30.2%, respectively.
In the case of `COC(=O)[C@]1(C)[C@@H]2CC[C@]3(C)[C@H](C(=O)C=C4[C@@H]5[C@@H](C)[C@H](C)CC[C@]5(C)CC[C@]43C)[C@@]2(C)CC[C@H]1OC(=O)Cc1ccccc1Nc1c(Cl)cccc1Cl`, in the data set with Rattus norvegicus [2], the inhibition entry is “Active”.
Same read-out and setting: the same measure for `COC(=O)[C@]1(C)[C@@H]2CC[C@]3(C)[C@H](CC=C4[C@@H]5[C@@H](C)[C@H](C)CC[C@]5(C)CC[C@]43C)[C@@]2(C)CC[C@H]1OC(=O)Cc1ccccc1Nc1c(Cl)cccc1Cl`: “Active”.
On to `C[C@H]1[C@H](C)CC[C@]2(C)CC[C@]3(C)C(=CC(=O)[C@@H]4[C@@]5(C)CC[C@@H](O)[C@](C)(C(=O)O)[C@@H]5CC[C@]43C)[C@H]12` [11-KETO BOSWELLIC ACID], for which the inhibition result in the data set on Rattus norvegicus [1] and in the data set with Rattus norvegicus [2] was “Active” throughout. Also, in data set [3], the CC50 at 24 h was found to be 82 µM. The Activity was found to be 72.7% in the data set with SW982 and 27.4% in data set [4].
With `CC(C)Cc1ccc(C(C)C(=O)O)cc1` (configuration not stated) [IBUPROFEN], the inhibition entry with Rattus norvegicus [1] and in the data set with Rattus norvegicus [2] was “Active” throughout. Moreover, the CC50 at 24 h in data set [3] was found to be 93 µM.
Take `COC(=O)[C@]1(C)[C@@H]2CC[C@]3(C)[C@H](C(=O)C=C4[C@@H]5[C@@H](C)[C@H](C)CC[C@]5(C)CC[C@]43C)[C@@]2(C)CC[C@H]1OC(=O)Cc1c(C)n(C(=O)c2ccc(Cl)cc2)c2ccc(OC)cc12`: the inhibition result in the data set on Rattus norvegicus [2] is “Active”.
